Measurements taken from US8455475B2 (Gruenenthal GmbH, priority 2009, dated 2013).

Legend:
[1] = target: T1, human B1R (bradykinin receptor 1) (Homo sapiens, UniProt P46663); experiment: FLIPR Ca2+ assay (Fluo-4) on CHO K1 cells stably transfected with the human B1R gene (hB1R cells): % inhibition at 10 μM / IC50, agonist Lys-Des-Arg9-bradykinin; format: cell-based; conditions: CHO-K1, human B1R
T1 construct: expressed in transfected cells; host or cells: CHO K1 cells
T1 sequence (P46663 1-353): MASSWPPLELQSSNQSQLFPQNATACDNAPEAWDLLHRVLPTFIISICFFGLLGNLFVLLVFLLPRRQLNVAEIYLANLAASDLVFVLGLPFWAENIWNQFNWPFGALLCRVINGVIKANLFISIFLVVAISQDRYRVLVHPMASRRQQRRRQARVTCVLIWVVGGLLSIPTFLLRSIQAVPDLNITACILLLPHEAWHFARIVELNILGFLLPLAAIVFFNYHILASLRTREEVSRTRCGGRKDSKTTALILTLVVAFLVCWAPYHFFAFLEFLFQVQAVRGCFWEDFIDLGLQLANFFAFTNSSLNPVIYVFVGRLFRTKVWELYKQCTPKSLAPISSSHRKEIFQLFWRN
Summary of the method: (§1)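 Using a two-addition FLIPR protocol, compound (10 μM for % values; concentration series for IC50) was preincubated 10–20 min with Fluo-4-loaded B1R-expressing CHO K1 cells before EC80 agonist challenge. Suppression of Ca2+ inflow, read as peak fluorescence, is expressed relative to maximum achievable inhibition; duplicate/triplicate, ≥2 independent experiments.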

[2] = target: T2, rat B1R (bradykinin receptor 1) (Rattus norvegicus, UniProt P97583); experiment: FLIPR Ca2+ assay (Fluo-4) on CHO K1 cells stably transfected with the B1R gene of the rat (rB1R cells): % inhibition at 10 μM / IC50, agonist Des-Arg9-bradykinin; format: cell-based; conditions: CHO-K1, rat B1R
T2 construct: expressed in transfected cells; host or cells: CHO K1 cells
T2 sequence (P97583 1-337): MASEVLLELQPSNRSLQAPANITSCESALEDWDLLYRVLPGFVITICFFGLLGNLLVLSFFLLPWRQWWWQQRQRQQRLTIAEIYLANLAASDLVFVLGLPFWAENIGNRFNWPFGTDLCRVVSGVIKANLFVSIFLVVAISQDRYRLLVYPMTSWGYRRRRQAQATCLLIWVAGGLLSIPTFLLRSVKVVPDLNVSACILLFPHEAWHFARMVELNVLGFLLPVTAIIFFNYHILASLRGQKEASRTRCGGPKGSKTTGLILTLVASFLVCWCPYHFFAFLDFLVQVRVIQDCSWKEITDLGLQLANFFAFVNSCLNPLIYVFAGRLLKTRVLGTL
Summary of the method: as §1

Row | Structure (SMILES) | inhibition at 10 µM [1] [%] | inhibition at 10 µM [2] [%]
1 | O=C(c1ccc2c(c1)[C@H](NS(=O)(=O)c1ccccc1F)CC2)N1CCC2(CCN(c3ccncc3)CC2)C1 [Example H-116, 2-Fluoro-N-[(1R)-6-(8-pyridin-4-yl-3,8-diazaspiro[4.5]decane-3-carbonyl)-2,3-dihydro-1H-inden-1-yl]-benzenesulfonic acid amide] | 100 | 101
2 | O=C(c1ccc2c(c1)[C@H](NS(=O)(=O)c1ccccc1C(F)(F)F)CC2)N1CCC2(CCN(c3ccncc3)CC2)C1 [Example H-118, N-[(1R)-6-(8-Pyridin-4-yl-3,8-diazaspiro[4.5]decane-3-carbonyl)-2,3-dihydro-1H-inden-1-yl]-2-(trifluoromethyl)-benzenesulfonic acid amide] | 100 | 101
3 | O=C(c1ccc2c(c1)[C@H](NS(=O)(=O)c1c(Cl)cccc1Cl)CC2)N1CCC2(CCN(c3ccncc3)CC2)C1 [Example H-119, 2,6-Dichloro-N-[(1R)-6-(8-pyridin-4-yl-3,8-diazaspiro[4.5]decane-3-carbonyl)-2,3-dihydro-1H-inden-1-yl]-benzenesulfonic acid amide] | 100 | 100
4 | O=C(N[C@@H]1CCc2ccc(C(=O)N3CCC4(CCC(OCCn5ccnc5)CC4)CC3)cc21)c1ccccc1Cl [Example H-120, 2-Chloro-N-[6-[9-[2-(1H-imidazol-1-yl)-ethoxy]-3-azaspiro[5.5]undecane-3-carbonyl]-2,3-dihydro-1H-inden-1-yl]-benzamide] | 65 | 104
5 | O=C(NC1CCc2ccc(C(=O)N3CCC4(CCN(c5ncc(C(F)(F)F)cn5)CC4)C3)cc21)c1ccccc1Cl (stereo not shown) [Example H-130, 2-Chloro-N-[6-[8-[5-(trifluoromethyl)-pyrimidin-2-yl]-3,8-diazaspiro[4.5]decane-3-carobnyl]-2,3-dihydro-1H-inden-1-yl]-benzamide] | 94 | 99
6 | O=C(NC1CCc2ccc(C(=O)N3CCC4(CCC(n5ccnc5)CC4)CC3)cc21)c1ccccc1Cl (stereo not shown) [Example H-131, 2-Chloro-N-[6-[9-(1H-imidazol-1-yl)-3-azaspiro[5.5]undecane-3-carbonyl]-2,3-dihydro-1H-inden-1-yl]-benzamide] | 74 | 102
7 | Cc1ccc2n1C(=O)N([C@@H]1CCc3ccc(C(=O)N4CCC5(CCN(c6ccncc6)CC5)C4)cc31)C2 [Example H-134, 5-Methyl-2-[(1R)-6-(8-pyridin-4-yl-3,8-diazaspiro[4.5]decane-3-carbonyl)-2,3-dihydro-1H-inden-1-yl]-1,2-dihydro-pyrrolo[2.1-e]imidazol-3-one] | 99 | 103
8 | O=C(N[C@@H]1CCc2ccc(C(=O)N3CCC4(CCC(c5cccnc5)CC4)C3)cc21)c1ccccc1Cl (stereo partly drawn) [Example H-135, 2-Chloro-N-[(1R)-6-(8-pyridin-3-yl-3-azaspiro[4.5]decane-3-carbonyl)-2,3-dihydro-1H-inden-1-yl]-benzamide] | 80 | 101
9 | O=C(c1ccc2c(c1)[C@H](NS(=O)(=O)c1cc(Cl)ccc1Cl)CC2)N1CCC2(CCN(c3ccncc3)CC2)C1 [Example H-142, 2,5-Dichloro-N-[(1R)-6-(8-pyridin-4-yl-3,8-diazaspiro[4.5]decane-3-carbonyl)-2,3-dihydro-1H-inden-1-yl]-benzenesulfonic acid amide] | 98 | 103
10 | CC(C)CC(=O)N[C@@H]1CCc2ccc(C(=O)N3CCC4(CCN(c5ccncc5)CC4)C3)cc21 [Example H-143, 3-Methyl-N-[(1R)-6-(8-pyridin-4-yl-3,8-diazaspiro[4.5]decane-3-carbonyl)-2,3-dihydro-1H-inden-1-yl]-butyramide] | 100 | 105
11 | COc1ccc(S(=O)(=O)N[C@@H]2CCc3ccc(C(=O)N4CCC5(CCN(c6ccncc6)CC5)C4)cc32)c(C(F)(F)F)c1 [Example H-144, 4-Methoxy-N-[(1R)-6-(8-pyridin-4-yl-3,8-diazaspiro[4.5]decane-3-carbonyl)-2,3-dihydro-1H-inden-1-yl]-2-(trifluoromethyl)-benzenesulfonic acid amide] | 99 | 104

The next lines start with the values.

Row | inhibition at 10 µM [1] [%] | inhibition at 10 µM [2] [%] | Structure (SMILES)
12 | 100 | 101 | Cc1ccccc1S(=O)(=O)N[C@@H]1CCc2ccc(C(=O)N3CCC4(CCN(c5ccncc5)CC4)C3)cc21 [Example H-117, 2-Methyl-N-[(1R)-6-(8-pyridin-4-yl-3,8-diazaspiro[4.5]decane-3-carbonyl)-2,3-dihydro-1H-inden-1-yl]-benzensulfonic acid amide]
13 | 38 | 36 | O=C(NC1CCc2ccc(C(=O)N3CCC4(CCC(O)(c5ccncc5)CC4)C3)cc21)c1ccccc1Cl (stereo not shown) [Example H-128, 2-Chloro-N-[6-(8-hydroxy-8-pyridin-4-yl-3-azaspiro[4.5]decane-3-carbonyl)-2,3-dihydro-1H-inden-1-yl]-benzamide]
14 | 100 | 102 | O=C(NC1CCc2ccc(C(=O)N3CCC4(CCN(c5cc[n+]([O-])cc5)CC4)C3)cc21)c1ccccc1Cl (stereo not shown) [Example H-129, 2-Chloro-N-[6-[8-(1-oxido-pyridin-1-ium-4-yl)-3,8-diazaspiro[4.5]decane-3-carbonyl]-2,3-dihydro-1H-inden-1-yl]-benzamide]
15 | 100 | 102 | CC1(C)CC(NC(=O)c2ccccc2Cl)c2cc(C(=O)N3CCC4(CCN(c5ccncc5)CC4)C3)ccc21 (stereo not shown) [Example H-132, 2-Chloro-N-[3,3-dimethyl-6-(8-pyridin-4-yl-3,8-diazaspiro[4.5]decane-3-carbonyl)-1,2-dihydro-inden-1-yl]-benzamide]
16 | 65 | 100 | O=C(NC1CCc2ccc(C(=O)N3CCC4(CCC(c5ccncc5)CC4)C3)cc21)c1ccccc1Cl (stereo not shown) [Example H-133, 2-Chloro-N-[6-(8-pyridin-4-yl-3-azaspiro[4.5]decane-3-carbonyl)-2,3-dihydro-1H-inden-1-yl]-benzamide]
17 | 99 | 101 | CN([C@@H]1CCc2ccc(C(=O)N3CCC4(CCN(c5ccncc5)CC4)C3)cc21)S(=O)(=O)c1ccccc1Cl [Example H-136, 2-Chloro-N-methyl-N-[(1R)-6-(8-pyridin-4-yl-3,8-diazaspiro[4.5]decane-3-carbonyl)-2,3-dihydro-1H-inden-1-yl]-benzenesulfonic acid amide]
18 | 99 | 103 | O=C(c1ccc2c(c1)[C@H](N(CC(F)(F)F)C(=O)c1ccccc1Cl)CC2)N1CCC2(CCN(c3ccncc3)CC2)C1 [Example H-137, 2-Chloro-N-[(1R)-6-(8-pyridin-4-yl-3,8-diazaspiro[4.5]decane-3-carbonyl)-2,3-dihydro-1H-inden-1-yl]-N-(2,2,2-trifluoro-ethyl)-benzamide]
19 | 100 | 102 | O=C(NC1CCc2ccc(C(=O)N3CCCC4(CC3)CCN(c3ccncc3)CC4)cc21)c1ccccc1Cl (stereo not shown) [Example H-138, 2-Chloro-N-[6-(3-pyridin-4-yl-3,10-diazaspiro[5.6]dodecane-10-carbonyl)-2,3-dihydro-1H-inden-1-yl]-benzamide]
20 | 31 | 98 | COc1ccc(N2CCC3(CCN(C(=O)c4ccc5c(c4)[C@H](NC(=O)c4ccccc4Cl)CC5)C3)CC2)cc1 [Example H-139, 2-Chloro-N-[(1R)-6-[8-(4-methoxyphenyl)-3,8-diazaspiro[4.5]decane-3-carbonyl]-2,3-dihydro-1H-inden-1-yl]-benzamide]
21 | 70 | 100 | N#Cc1ccc(N2CCC3(CCN(C(=O)c4ccc5c(c4)[C@H](NC(=O)c4ccccc4Cl)CC5)C3)CC2)cc1 [Example H-140, 2-Chloro-N-[(1R)-6-[8-(4-cyano-phenyl)-3,8-diazaspiro[4.5]decane-3-carbonyl]-2,3-dihydro-1H-inden-1-yl]-benzamide]
22 | 99 | 101 | O=C(N[C@@H]1CCc2ccc(C(=O)N3CCC4(CCN(c5ccncc5)CC4)C3)cc21)c1cc(F)ccc1Cl [Example H-141, 2-Chloro-5-fluoro-N-[(1R)-6-(8-pyridin-4-yl-3,8-diazaspiro[4.5]decane-3-carbonyl)-2,3-dihydro-1H-inden-1-yl]-benzamide]
23 | 100 | 101 | CC(C(=O)N[C@@H]1CCc2ccc(C(=O)N3CCC4(CCN(c5ccncc5)CC4)C3)cc21)c1ccccc1Cl (stereo partly drawn) [Example H-145, 2-(2-Chlorophenyl)-N-[(1R)-6-(8-pyridin-4-yl-3,8-diazaspiro[4.5]decane-3-carbonyl)-2,3-dihydro-H-inden-1-yl]-propionamide]
